Experimental data as given in US20080113038A1, “Composition For Promoting Osteogenesis And Increasing Bone Mineral Content” (priority 2004, published 2008).

Tests used:
[1] = test system: diaphysis and metaphysis tissues of rat femur; assay: Calcium level in bone tissues in a bone tissue culture system; settings: for Change of calcium levels in bone tissues (in words) / Calcium level in bone tissues, diaphysis part / Calcium level in bone tissues, metaphysis part / Change of calcium levels in bone tissues compared to the control group (in words): 48 h culture, β-cryptoxanthin 10^−9 M; for Calcium level in bone tissues, diaphysis part / Calcium level in bone tissues, metaphysis part: mean ± SD, 5 rats; for Change of calcium level in bone tissues (in words): higher concentration of 10^−5 M; for Change of calcium levels in bone tissues compared to the control group (in words): both diaphysis and metaphysis
Description: Rats (Wistar male rats; 4 weeks old, body weight 85-90 g; purchased from Japan SLC Ltd., and fed with solid Oriental yeast (MF)) were sacrificed under mild ether anesthesia. Muscle tissues around femur were removed completely, divided into diaphysis (cortical bone) and metaphysis (cancellous bone) tissues of femur, and then the bone marrow cells were washed and removed in a cold 0.25 M sucrose solution. The bone tissue pieces were cultured in a Dulbecco's modified Eagle's culture medium (serum-free, containing 50 units/ml penicillin and 50 μg/ml spretomycin, supplemented with 45 mg/ml glucose), in an CO2 incubator aseptically for 48 hours at 37° C. […] Bone tissues were put into a culture dish (with a diameter of 35 mm, made of plastic) added with 2.0 ml of the above mentioned culture solution, and cultured. After being cultured, bone tissues were washed well in a cold 0.25 M sucrose solution, dried at 100° C. for 5 hours, and weighed. Dried bone tissues were put into a test tube (15 ml), to which 2.0 ml of concentrated nitric acid was added, and the resultant was heated and degraded at 100° C. for 16 hours. After degradation, solution amount was measured. A specific amount thereof was diluted with purified distilled water, and calcium was determined by colorimetry (kit for measuring calcium, Wako Pure Chemical Industries). Calcium levels in bone tissues are indicated as mg per 1 g of dried weight of cultured bone tissues. In the above experiment, bone tissues obtained from one rat were put in one culture dish, and 5 culture dishes were used for 5 rats. 5 dishes were used for each of the control, β-cryptoxanthin alone group, zinc alone group, and the β-cryptoxanthin and zinc-combined group. […] A critical value of less than 5% was determined as having a significant difference.
In order to investigate the effect on calcium levels in bone tissues when β-cryptoxanthin and zinc, or genistein and menaquinone-7 are supplied in the bone tissue culture system, femur diaphysis and metaphysis tissues were cultured for 48 hours in a culture solution, in the same manner as in Example 1, and the calcium level in bone tissues was measured, compared and evaluated.

bone protein synthesis = settings: non-patent document 4; cited from earlier work
[2] = test system: femur diaphysis and metaphysis tissues; assay: Calcium level in bone tissues by oral administration; assay type: in vivo, rat; settings: rats, β-cryptoxanthin 5 μg/100 g body weight, zinc 0.1 mg/100 g body weight; for Change of calcium level in diaphysis (in words) / Change of calcium level in metaphysis (in words): oral 7 days; for Calcium level in bone tissues, diaphysis part / Calcium level in bone tissues, metaphysis part: oral once a day for 7 days, femur 24 h after final administration
Description: (§1) After degradation, solution amount was measured.
(§2) 24 hours after the final administration, femur was extracted, and the change in calcium levels in diaphysis and metaphysis tissues was examined with the method of Example 1.

[3] = test system: alkaline phosphatase in bone tissues (femur diaphysis and metaphysis); assay: Alkaline phosphatase activity in bone tissues in a bone tissue culture system; assay type: cell-based, rat; settings: 48 h culture, β-cryptoxanthin 10^−9 M, zinc 10^−6 M; for Alkaline phosphatase activity in bone tissues, diaphysis part / Alkaline phosphatase activity in bone tissues, metaphysis part: mean ± SD, 5 rats; for Change of alkaline phosphatase activity in bone tissues compared to the control group (in words): diaphysis and metaphysis
Description: as §1
(§3) The expression level of alkaline phosphatase, which is the most important enzyme for promoting bone calcification, was examined. […] The resultant liquid was centrifuged. The supernatant, as an enzyme solution, was determined by a method of Walter and Schutt (in Method of Enzymatic Analysis, Vol. 1-2, p. 856, Academic Press, New York, 1965). Namely, this method was carried out as follows: p-nitrophenylphosphoric acid was used as a substrate; 0.05 ml of the enzyme solution was added to 2 ml of diethanolamine buffer (pH 9.8). After the incubation at 37° C. for 30 minutes, 10 ml of 0.05 N NaOH was added to the mixture.

[4] = test system: alkaline phosphatase in bone tissues (femur diaphysis and metaphysis); assay: Alkaline phosphatase activity in bone tissues by oral administration; assay type: in vivo, rat; settings: rats, β-cryptoxanthin 5 μg/100 g body weight, zinc 0.1 mg/100 g body weight; for Change of alkaline phosphatase activity in diaphysis and metaphysis tissues (in words): oral 7 days; for Alkaline phosphatase activity in bone tissues, diaphysis part / Alkaline phosphatase activity in bone tissues, metaphysis part: oral once a day for 7 days
Description: as §3, with “mixture. The absorbance (405 nm) was determined with a spectrophotometer to examine bone alkaline phosphatase activity of a therapeutic agent for bones and of a compound known to be effective for bones.” for “mixture.”
as §2
The change of alkaline phosphatase activity in diaphysis and metaphysis tissues which were extracted in the same manner as in Example 5 was examined with the method of Example 3.

[5] = test system: diaphysis and metaphysis tissues of rat femur; assay: DNA level in bone tissues in a bone tissue culture system; assay type: cell-based; settings: 48 h culture, β-cryptoxanthin 10^−9 M, zinc 10^−6 M; for DNA level in bone tissues, diaphysis part / DNA level in bone tissues, metaphysis part: mean ± SD, 5 rats; for Change of DNA level in bone tissues compared to the control group (in words): diaphysis and metaphysis
Description: as §1
(§4) DNA level was determined as an index of cell count in bone tissues. […] After osmosis at 4° C. for 24 hours, the liquid mixture was centrifuged. The supernatant was taken as a sample and determined by a method of Ceriotti et al. (J. Biol. Chem., 241; 34-77, 1951). Namely, 1 ml of concentrated hydrochloric acid and 1 ml of 0.04% indole solution were added to 2 ml of the sample and then the resultant mixture was heated to 100° C. in boiling water. After quenching followed by an extraction with 4 ml of chloroform, the chloroform layer was taken to determine bone DNA level with a spectrophotometer (490 nm).

[6] = test system: femur diaphysis and metaphysis tissues; assay: DNA level in bone tissues by oral administration; assay type: in vivo, rat; settings: rats, β-cryptoxanthin 5 μg/100 g body weight, zinc 0.1 mg/100 g body weight; for Change of DNA level in diaphysis (in words) / Change of DNA level in metaphysis tissues (in words): oral 7 days; for DNA level in bone tissues, diaphysis part / DNA level in bone tissues, metaphysis part: oral once a day for 7 days
Description: as §4, §2
The change of DNA level in diaphysis and metaphysis tissues which were extracted in the same manner as in Example 5 was examined with the method of Example 4.

[7] = test system: diaphysis and metaphysis tissues of a femur; settings: cited from earlier work
[8] = Example 2, zinc, genistein, menaquinone-7 each 10^−6 M

Structure (SMILES) | Change of calcium levels in bone tissues (in words) [1, 8] | Calcium level in bone tissues, diaphysis part [1, 8] | Calcium level in bone tissues, metaphysis part [1, 8] | Change of calcium level in bone tissues (in words) [1] | Calcium level in bone tissues, diaphysis part ([1]; Example 1, zinc 10^−6 M) | Calcium level in bone tissues, metaphysis part ([1]; Example 1, zinc 10^−6 M) | Change of calcium levels in bone tissues compared to the control group (in words) ([1]; Example 1, zinc 10^−6 M) | Change of calcium level in diaphysis (in words) [2] | Change of calcium level in metaphysis (in words) [2] | Calcium level in bone tissues, diaphysis part [2] | Calcium level in bone tissues, metaphysis part [2] | Alkaline phosphatase activity in bone tissues, diaphysis part [3] | Alkaline phosphatase activity in bone tissues, metaphysis part [3] | Change of alkaline phosphatase activity in bone tissues compared to the control group (in words) [3] | Change of alkaline phosphatase activity in diaphysis and metaphysis tissues (in words) [4] | Alkaline phosphatase activity in bone tissues, diaphysis part [4] | Alkaline phosphatase activity in bone tissues, metaphysis part [4] | DNA level in bone tissues, diaphysis part [5] | DNA level in bone tissues, metaphysis part [5] | Change of DNA level in bone tissues compared to the control group (in words) [5] | other results
O=c1c(-c2ccc(O)cc2)coc2cc(O)cc(O)c12 [genistein, reference compound] | did not increase significantly | 211.0 ± 7.93 mg/g bone dry weight | 189.3 ± 6.40 mg/g bone dry weight | increasing significantly | – | – | – | – | – | – | – | – | – | – | – | – | – | – | – | – | –
CC(C)=CCC/C(C)=C/CC/C(C)=C/CC/C(C)=C/CC/C(C)=C/CC/C(C)=C/CC/C(C)=C/CC1=C(C)C(=O)c2ccccc2C1=O [menaquinone-7, reference compound] | did not increase significantly | 219.8 ± 4.20 mg/g bone dry weight | 184.9 ± 2.70 mg/g bone dry weight | increasing significantly | – | – | – | – | – | – | – | – | – | – | – | – | – | – | – | – | –
O=S(=O)([O-])[O-].[Zn+2] [zinc, zinc sulfate] | did not increase significantly | 224.3 ± 2.90 mg/g bone dry weight | 190.2 ± 2.53 mg/g bone dry weight | – | 215.5 ± 2.01 mg/g bone dry weight | 185.6 ± 1.56 mg/g bone dry weight | did not change significantly | did not induce a significant change | did not induce a significant change | 227.9 ± 4.3 mg/g dry mass | 178.6 ± 4.0 mg/g dry mass | 1.019 ± 0.061 μmol/min/mg protein | 1.190 ± 0.079 μmol/min/mg protein | did not change significantly | did not induce a significant change | 1.725 ± 0.038 μmol/min/mg protein | 1.170 ± 0.033 μmol/min/mg protein | 1.471 ± 0.052 mg/g bone wet weight | 3.025 ± 0.271 mg/g bone wet weight | did not change significantly | Concentration at which synthesis of bone protein is promoted (bone protein synthesis): ≥ 10^−4 M; Change of DNA level in diaphysis (in words) [6]: did not induce a significant change; Change of DNA level in metaphysis tissues (in words) [6]: did not induce a significant change; DNA level in bone tissues, diaphysis part [6]: 1.805 ± 0.154 mg/g bone wet weight; DNA level in bone tissues, metaphysis part [6]: 3.278 ± 0.103 mg/g bone wet weight
CC1=C(/C=C/C(C)=C/C=C/C(C)=C/C=C/C=C(C)/C=C/C=C(C)/C=C/C2=C(C)C[C@@H](O)CC2(C)C)C(C)(C)CCC1 [β-cryptoxanthin] | did not increase significantly | 221.5 ± 3.45 mg/g bone dry weight | 189.5 ± 3.44 mg/g bone dry weight | – | 221.5 ± 3.95 mg/g bone dry weight | 189.5 ± 2.39 mg/g bone dry weight | did not change significantly | did not induce a significant change | increased significantly | 233.6 ± 6.8 mg/g dry mass | 190.1 ± 3.4 mg/g dry mass | 1.010 ± 0.078 μmol/min/mg protein | 1.122 ± 0.078 μmol/min/mg protein | did not change significantly | did not induce a significant change | 1.703 ± 0.056 μmol/min/mg protein | 1.159 ± 0.048 μmol/min/mg protein | 1.358 ± 0.089 mg/g bone wet weight | 3.141 ± 0.078 mg/g bone wet weight | did not change significantly | Change of DNA level in diaphysis (in words) [6]: did not induce a significant change; Change of DNA level in metaphysis tissues (in words) [6]: significant increase; DNA level in bone tissues, diaphysis part [6]: 1.980 ± 0.251 mg/g bone wet weight; DNA level in bone tissues, metaphysis part [6]: 4.102 ± 0.055 mg/g bone wet weight; Effective concentration for promoting osteogenesis and increasing bone calcium level ([7]; 48-hour culture system of a bone tissue culture system, earlier report of the inventors): 10^−8-10^−6 M; Concentration at which osteogenesis is promoted and bone calcium increased ([7]; 48 h culture in a bone tissue culture system, patent document 10, non-patent document 2): 10^−1 to 10^−6; Calcium level, bone calcification accelerating enzyme and DNA level in bone tissues (in words) ([7]; femur diaphysis and metaphysis tissues cultured in medium containing β-cryptoxanthin, earlier report of the inventors): significant increase
